{"source": "patent US12503489B2", "about": "“Method for producing antibody-drug conjugate” (DAIICHI SANKYO COMPANY, LIMITED, priority 2017, dated 2025)", "origin": "cited, not measured here", "biological_target": "T1, topoisomerase I (Homo sapiens, UniProt P11387)", "T1 sequence (P11387 1-765)": "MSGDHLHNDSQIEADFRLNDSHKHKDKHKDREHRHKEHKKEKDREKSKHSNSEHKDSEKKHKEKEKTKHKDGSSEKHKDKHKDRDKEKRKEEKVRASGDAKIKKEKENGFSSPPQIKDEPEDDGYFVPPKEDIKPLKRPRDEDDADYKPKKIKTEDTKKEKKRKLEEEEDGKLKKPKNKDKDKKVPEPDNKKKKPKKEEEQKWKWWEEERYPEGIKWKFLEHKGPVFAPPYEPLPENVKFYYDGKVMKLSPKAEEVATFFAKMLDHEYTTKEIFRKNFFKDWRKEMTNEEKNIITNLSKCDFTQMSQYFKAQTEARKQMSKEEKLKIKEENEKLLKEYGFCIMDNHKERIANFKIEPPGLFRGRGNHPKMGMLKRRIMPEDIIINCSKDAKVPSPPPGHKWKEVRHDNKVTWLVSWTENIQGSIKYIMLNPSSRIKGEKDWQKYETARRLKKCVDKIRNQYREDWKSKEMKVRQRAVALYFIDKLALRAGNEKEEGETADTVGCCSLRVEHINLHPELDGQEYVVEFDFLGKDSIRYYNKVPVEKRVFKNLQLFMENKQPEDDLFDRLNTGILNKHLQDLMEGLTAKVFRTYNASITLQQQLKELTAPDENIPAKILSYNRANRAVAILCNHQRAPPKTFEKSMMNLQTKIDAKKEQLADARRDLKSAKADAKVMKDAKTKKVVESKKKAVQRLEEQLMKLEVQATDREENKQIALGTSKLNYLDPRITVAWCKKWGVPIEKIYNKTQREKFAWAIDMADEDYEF", "settings": "Ogitani Y. et al., Clinical Cancer Research 2016; 22 (20): 5097-5108", "data": [{"smiles": "CC[C@@]1(O)C(=O)OCc2c1cc1n(c2=O)Cc2c-1nc1cc(F)c(C)c3c1c2[C@@H](NC(=O)CO)CC3", "note": "[formula (22)]", "values": [{"measurement": "topoisomerase I inhibitory effect", "result": "confirmed to have a topoisomerase I inhibitory effect"}]}]}
